Nine compounds from US20230117034A1, “PYRAZOLOTRIAZINES” (Bayer Aktiengesellschaft, priority 2019, published 2023) can be followed below.

The target of experiment [1] is T1, CDK12 (nuclear staining in CAL-120 cells) (Homo sapiens, UniProt Q9NYV4).
T1 construct: endogenous in cells; host or cells: CAL-120 human breast cancer cells (DSMZ ACC 459)
In words: CDK12 nuclear protein level: immunofluorescence/high content analysis (CAL-120). Format: cell-based. Particulars: for DC50: CAL-120 cells, 24 h, immunofluorescence, 50% reduction of nuclear CDK12 staining intensity, median, read-out: CDK12 degradation IF, DC50- [mol/l] (median); for (IC50 CDK12 high ATP) to (Degradation DC50 CDK12) ratio: ratio of IC50 CDK12 high ATP kinase assay to DC50 CDK12 degradation (IF, CAL-120). In a few lines: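 DC50 is the degrader concentration that halves nuclear CDK12 immunofluorescence relative to controls, measured by high-content imaging. CAL-120 cells were exposed to compound for 24 h at 37 °C before PFA fixation, and signal was normalized to DMSO and control wells.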

The next experiment addresses CDK12/CycK (Homo sapiens, UniProt Q9NYV4). In words: CDK12/CycK high ATP kinase assay (TR-FRET, 2 mM ATP). Particulars: 2 mM ATP (high ATP); median; read-out: CDK12/CyclinK, 2 mM ATP (high ATP), IC50-[mol/l] (median). Format: biochemical. A digest of the protocol: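 Read-out is TR-FRET (Eu-anti-rabbit IgG, anti-phospho-c-Myc Ser62 antibody, streptavidin-XL665) after EDTA stop. Reaction ran 60 min at 22 °C using 1 µM biotin-peptide and high ATP (2 mM) with roughly 0.75 nM recombinant CDK12/CycK, after 15 min compound pre-binding; normalised emission ratios yield IC50.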
Background: In TR-FRET formats the signal depends on donor and acceptor labels being close together.

Sequence of CDK12/CycK (Q9NYV4 with tags, fused parts or gaps): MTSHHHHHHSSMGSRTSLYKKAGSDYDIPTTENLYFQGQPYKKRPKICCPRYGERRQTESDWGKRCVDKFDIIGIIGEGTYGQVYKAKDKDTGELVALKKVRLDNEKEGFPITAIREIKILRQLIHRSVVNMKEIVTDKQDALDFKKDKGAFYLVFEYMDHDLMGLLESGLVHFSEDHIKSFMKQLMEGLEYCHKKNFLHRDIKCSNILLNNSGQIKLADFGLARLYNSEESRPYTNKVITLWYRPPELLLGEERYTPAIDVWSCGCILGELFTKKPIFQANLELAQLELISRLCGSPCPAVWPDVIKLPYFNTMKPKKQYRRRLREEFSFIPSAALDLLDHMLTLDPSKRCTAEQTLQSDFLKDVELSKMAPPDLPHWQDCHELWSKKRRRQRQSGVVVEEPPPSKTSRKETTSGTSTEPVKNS
Sequence of CDK12/CycK (O75909 1-300 partner limits assumed): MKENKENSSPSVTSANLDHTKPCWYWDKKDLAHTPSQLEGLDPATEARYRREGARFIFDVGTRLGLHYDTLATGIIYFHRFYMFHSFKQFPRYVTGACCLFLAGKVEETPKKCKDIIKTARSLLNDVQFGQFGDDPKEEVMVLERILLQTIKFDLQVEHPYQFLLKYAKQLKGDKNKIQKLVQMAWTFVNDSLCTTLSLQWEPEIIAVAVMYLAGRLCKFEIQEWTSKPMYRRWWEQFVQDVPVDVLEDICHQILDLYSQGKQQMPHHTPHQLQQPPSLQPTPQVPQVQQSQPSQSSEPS
T1 sequence (Q9NYV4 whole entry): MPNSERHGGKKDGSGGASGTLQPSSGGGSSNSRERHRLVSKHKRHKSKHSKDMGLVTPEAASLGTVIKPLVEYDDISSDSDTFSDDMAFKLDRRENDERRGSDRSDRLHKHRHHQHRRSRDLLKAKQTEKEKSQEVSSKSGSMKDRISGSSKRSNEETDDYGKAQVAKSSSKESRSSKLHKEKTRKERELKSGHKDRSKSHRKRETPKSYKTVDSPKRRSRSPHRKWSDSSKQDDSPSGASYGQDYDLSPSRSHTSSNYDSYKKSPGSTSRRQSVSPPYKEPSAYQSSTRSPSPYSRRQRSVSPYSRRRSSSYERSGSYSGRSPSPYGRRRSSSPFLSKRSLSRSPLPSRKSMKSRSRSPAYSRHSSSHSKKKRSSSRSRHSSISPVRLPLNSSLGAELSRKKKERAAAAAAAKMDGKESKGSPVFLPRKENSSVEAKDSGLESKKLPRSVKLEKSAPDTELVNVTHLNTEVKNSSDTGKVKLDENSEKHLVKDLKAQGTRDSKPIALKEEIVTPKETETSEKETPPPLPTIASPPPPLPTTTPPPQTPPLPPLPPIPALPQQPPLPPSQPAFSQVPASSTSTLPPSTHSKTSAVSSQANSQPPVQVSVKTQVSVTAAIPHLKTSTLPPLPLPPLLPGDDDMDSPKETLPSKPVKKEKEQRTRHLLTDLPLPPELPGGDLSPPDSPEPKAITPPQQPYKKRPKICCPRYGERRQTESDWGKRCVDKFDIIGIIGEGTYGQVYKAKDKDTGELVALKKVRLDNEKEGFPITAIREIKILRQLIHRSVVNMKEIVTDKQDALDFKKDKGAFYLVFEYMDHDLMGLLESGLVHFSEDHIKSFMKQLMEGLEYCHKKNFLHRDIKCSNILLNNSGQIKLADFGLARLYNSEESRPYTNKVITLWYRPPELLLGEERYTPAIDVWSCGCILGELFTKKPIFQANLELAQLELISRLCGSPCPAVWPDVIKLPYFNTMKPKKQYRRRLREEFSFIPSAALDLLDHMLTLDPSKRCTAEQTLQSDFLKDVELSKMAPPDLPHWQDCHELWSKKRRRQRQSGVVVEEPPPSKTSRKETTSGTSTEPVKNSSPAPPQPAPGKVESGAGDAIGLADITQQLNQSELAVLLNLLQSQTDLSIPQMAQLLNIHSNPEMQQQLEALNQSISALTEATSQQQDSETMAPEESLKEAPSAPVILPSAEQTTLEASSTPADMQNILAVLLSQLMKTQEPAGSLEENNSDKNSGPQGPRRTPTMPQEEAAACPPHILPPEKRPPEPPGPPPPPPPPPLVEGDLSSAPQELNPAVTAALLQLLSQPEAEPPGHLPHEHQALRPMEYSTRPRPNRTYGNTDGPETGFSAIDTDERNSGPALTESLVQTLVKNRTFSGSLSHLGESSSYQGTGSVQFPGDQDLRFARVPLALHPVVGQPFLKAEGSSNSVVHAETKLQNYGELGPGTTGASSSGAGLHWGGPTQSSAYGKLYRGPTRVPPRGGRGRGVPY
T1 sequence (O75909 whole entry partner): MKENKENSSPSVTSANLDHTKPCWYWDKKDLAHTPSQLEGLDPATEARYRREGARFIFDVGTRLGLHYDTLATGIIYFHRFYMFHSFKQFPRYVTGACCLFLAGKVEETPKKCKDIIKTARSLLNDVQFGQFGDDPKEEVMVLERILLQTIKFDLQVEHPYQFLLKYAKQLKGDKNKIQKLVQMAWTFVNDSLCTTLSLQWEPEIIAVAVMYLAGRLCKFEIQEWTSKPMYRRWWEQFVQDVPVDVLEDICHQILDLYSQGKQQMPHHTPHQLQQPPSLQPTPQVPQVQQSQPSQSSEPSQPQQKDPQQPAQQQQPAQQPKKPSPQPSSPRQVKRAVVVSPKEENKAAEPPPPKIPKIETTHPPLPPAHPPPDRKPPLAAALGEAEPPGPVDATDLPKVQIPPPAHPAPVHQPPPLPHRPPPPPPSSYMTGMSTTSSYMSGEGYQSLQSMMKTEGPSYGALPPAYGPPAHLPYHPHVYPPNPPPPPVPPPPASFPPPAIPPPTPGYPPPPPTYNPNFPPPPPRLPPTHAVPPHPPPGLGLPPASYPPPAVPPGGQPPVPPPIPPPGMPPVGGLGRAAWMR

With `CN1CCC(Oc2nc(NCc3nc4ccccc4[nH]3)n3ncc(Br)c3n2)CC1` [Example 389, N-[(1H-benzimidazol-2-yl)methyl]-8-bromo-2-[(1-methylpiperidin-4-yl)oxy]pyrazolo[1,5-a][1,3,5]triazin-4-amine], in experiment [1], the DC50 amounted to 0.0335 µM and the “(IC50 CDK12 high ATP) to (Degradation DC50 CDK12) ratio” value was above 597. The IC50 on CDK12/CycK was above 20 µM.

For the compound `FC(F)(F)c1ccc2[nH]c(CNc3nc(N4CC5CCC(C4)N5)nc4c(C5CC5)cnn34)nc2c1` [Example 327, 8-cyclopropyl-2-(3,8-diazabicyclo[3.2.1]octan-3-yl)-N-{[5-(trifluoromethyl)-1H-benzimidazol-2-yl]methyl}pyrazolo[1,5-a][1,3,5]triazin-4-amine], in experiment [1], the DC50 is 0.01 µM and the “(IC50 CDK12 high ATP) to (Degradation DC50 CDK12) ratio” value was found to be 235. Also, the IC50 at CDK12/CycK is 2.35 µM.

With `CN1C2CCC1CN(c1nc(NCc3nc4c(F)c(F)ccc4[nH]3)n3ncc(C(F)(F)F)c3n1)C2` [Example 356, N-[(4,5-difluoro-1H-benzimidazol-2-yl)methyl]-2-(8-methyl-3,8-diazabicyclo[3.2.1]octan-3-yl)-8-(trifluoromethyl)pyrazolo[1,5-a][1,3,5]triazin-4-amine], in experiment [1], the DC50 amounted to 0.00668 µM and the “(IC50 CDK12 high ATP) to (Degradation DC50 CDK12) ratio” value is 734. In addition, the IC50 at CDK12/CycK stood at 4.91 µM.

With `CN(CC(C)(C)O)c1nc(NCc2nc3c(F)c(F)ccc3[nH]2)n2ncc(Cl)c2n1` [Example 359, 1-[(8-chloro-4-{[(4,5-difluoro-1H-benzimidazol-2-yl)methyl]amino}pyrazolo[1,5-a][1,3,5]triazin-2-yl)(methyl)amino]-2-methylpropan-2-ol], in experiment [1], the DC50 was 0.00433 µM and the “(IC50 CDK12 high ATP) to (Degradation DC50 CDK12) ratio” value stood at 483. At CDK12/CycK, the IC50 was 2.09 µM.

In the case of `CN1CCCN(c2nc(NCc3nc4ccccc4[nH]3)n3ncc(Br)c3n2)CC1` [Example 390, N-[(1H-benzimidazol-2-yl)methyl]-8-bromo-2-(4-methyl-1,4-diazepan-1-yl)pyrazolo[1,5-a][1,3,5]triazin-4-amine], in experiment [1], the DC50 stood at 0.0192 µM and the “(IC50 CDK12 high ATP) to (Degradation DC50 CDK12) ratio” value is on record as above 1041. Further, the IC50 on CDK12/CycK was above 20 µM.

Turning to `Brc1cnn2c(NCc3nc4ccccc4[nH]3)nc(N3C[C@H]4CC[C@@H]3CO4)nc12` (single isomer, unassigned; enantiomer 2) [Example 391, N-[(1H-benzimidazol-2-yl)methyl]-8-bromo-2-{[1R or S-(1R*,4R*)]-2-oxa-5-azabicyclo[2.2.2]octan-5-yl}pyrazolo[1,5-a][1,3,5]triazin-4-amine (Enantiomer 2)], in experiment [1], the DC50 was found to be 0.00698 µM and the “(IC50 CDK12 high ATP) to (Degradation DC50 CDK12) ratio” value worked out at 960. The IC50 on CDK12/CycK came to 6.7 µM.

On to `Fc1ccc2[nH]c(CNc3nc(N4CCOCC4)nc4c(Cl)cnn34)nc2c1F` [Example 357], for which, in experiment [1], the DC50 worked out at 0.0039 µM and the “(IC50 CDK12 high ATP) to (Degradation DC50 CDK12) ratio” value stood at 295. In addition, the IC50 at CDK12/CycK worked out at 1.15 µM.

`CN(CC(C)(C)O)c1nc(NCc2nc3c(F)c(Cl)ccc3[nH]2)n2ncc(C3CC3)c2n1` [Example 387, 1-[(4-{[(5-chloro-4-fluoro-1H-benzimidazol-2-yl)methyl]amino}-8-cyclopropylpyrazolo[1,5-a][1,3,5]triazin-2-yl)(methyl)amino]-2-methylpropan-2-ol]: in experiment [1], the DC50 was 0.00383 µM and the “(IC50 CDK12 high ATP) to (Degradation DC50 CDK12) ratio” value is recorded as 61. Moreover, the IC50 on CDK12/CycK was 0.233 µM.

Turning to `Fc1c(Cl)ccc2[nH]c(CNc3nc(N4CCOCC4)nc4c(Br)cnn34)nc12` [Example 372, 8-bromo-N-[(5-chloro-4-fluoro-1H-benzimidazol-2-yl)methyl]-2-(morpholin-4-yl)pyrazolo[1,5-a][1,3,5]triazin-4-amine], in experiment [1], the DC50 was 0.00244 µM and the “(IC50 CDK12 high ATP) to (Degradation DC50 CDK12) ratio” value is listed as 110. Moreover, at CDK12/CycK, the IC50 came out at 0.269 µM.
